The values that follow come from patent US20120277246A1, “Use of N-Phenyl-2-pyrimidineamine Derivatives Against Mast Cell-based Diseases Like Allergic Disorders” (priority 2001, published 2012).

Assay [1] concerns BR canine mastocytoma cells. Put plainly: Proliferation of BR cells, XTT-based assay. In kind it is cell-based. As to conditions: for % (percent of maximal proliferation, cells only) / Averages (XTT-based assay reading): 72 hours; for Averages (XTT-based assay reading): triplicate. Here is the method: (§1) Cell lines: BR and C2 canine mastocytoma cells lines were obtained from Dr. George Caughey (University of California at San Francisco, San Francisco, Calif.). Both cell lines were maintained in DMEM supplemented with 2% bovine calf, 1 mM L-glutamine, 12.5 mM HEPES (pH 7.5), 0.25 mg/ml Histidine, 1% Penicillin-Streptomycin and 1% fungizone. The BR and C2 cells were derived from canine mast cell tumors and were originally established in long-term culture after initial passaging in immunodeficient mice (DeVinney R et al., Am J Respir Cell Mol Biol 1990; 3(5):413-420; Lazarus S C et al., Am J Physiol 1986; 251(6 Pt 1):C935-C944). The BR cell line has a point mutation (T1752C) resulting in a Leucine to Proline substitution at amino acid 575 (juxtamembrane domain). The C2 cell line has an internal tandem duplication (ITD) of the KIT juxtamembrane region. The translation of this ITD results in reduplication of amino acid residues at the 3′ end of exon 11 (London et al., Exp. Hematol., Vol. 27, No. 4, pp. 689-697 (1999); Ma et al., J. Invest. Dermatol., Vol. 112, No. 2, pp. 165-170 (1999)).
(§2) Proliferation assays: Cells were added to 96-well plates at a density of 40,000 cells/well in normal culture media and varying concentrations of SALT I. Proliferation was measured at 48-72 hours using an XTT-based assay (Roche Molecular Biochemicals; Indianapolis, Ind.) (Heinrich et al., Blood, Vol. 96, No. 3, pp. 925-932 (2000))
(§3) Representative results from one of six independent experiments are shown.

The subject of assay [2] is cutaneous mast cell tumors. In words: Prospective case series of pet dogs with measurable cutaneous mast cell tumors. In kind it is in vivo. Conditions: 25 mg/kg PO QD x 60 days of SALT I, prospective example. The protocol: The study patients are pet dogs with measurable and histologically-confirmed mast cell tumors. Cases are limited to those with measurable lesions amenable to biopsy.
Eligibility criteria are: • Histologically-confirmed measurable cutaneous mast cell tumors • Cases will require serial biopsy with […] Keyes punch before and during therapy • Histological grade (II-intermediate or III-poorly differentiated) • Performance status 0 or I (Modified Karnofsky—Table 3) • Informed owner consent
Exclusion criteria are: • Concurrent cytotoxic chemotherapy • Prednisone and non-steroidal anti-inflammatory drugs may not be initiated within 30 days of the study; if prednisone or non-steroidal anti-inflammatory drugs have been administered for greater than 30 days they may be continued • Abnormal serum bile acid test (liver function)
Pretreatment evaluation of all cases include physical examination, complete blood count, buffy coat, serum biochemistry, urinalysis, serum bile acids (fasting and post-prandial), documentation of regional lymph node size, abdominal radiographs, and abdominal ultrasound. […]
The efficacy of COMPOUND I is assessed against measurable cutaneous mast cell tumors, using clinical endpoints. […]
Clinical endpoints include response rate of measurable tumors, objective response against measurable tumor, and time to progression of measurable tumor. All adverse side effects will be recorded.

Assay [3] deals with constitutively activated mutant canine KIT (C2 cells, internal tandem duplication of the juxtamembrane region). Put plainly: KIT autophosphorylation in C2 cells (anti-P-Tyr Western immunoblot). Type of assay: cell-based.
Source text: (§4) Antibodies: A polyclonal rabbit anti-KIT antibody (c-kit Ab-1) was used at a dilution of 1:500 (c-kit Ab-1; Oncogene, Cambridge, Mass.). An anti-phosphotyrosine antibody (PY20) was used at a dilution of 1:1000 (PY20 Transduction Laboratories; Lexington, Ky.). Peroxidase conjugated goat anti-mouse antibody was used at a dilution of 1:5000 and goat anti-rabbit antibody at a dilution of 1:10,000 (Pierce; Rockford, Ill.).
as §1, with “region.” for “region. The translation of this ITD results in reduplication of amino acid residues at the 3′ end of exon 11 (London et al., Exp. Hematol., Vol. 27, No. 4, pp. 689-697 (1999); Ma et al., J. Invest. Dermatol., Vol. 112, No. 2, pp. 165-170 (1999)).”
(§5) Protein lysates: BR and C2 cells were washed×2 in PBS and then quiesced in Optimem (Gibco-BRL) at 37° C. for approximately 18 hours.
(§6) The KIT mutations in these cell lines are both located in the juxtamembrane domain and are homologous to mutations seen in human Gastrointestinal Stromal Tumors (GISTS) (Lux et al., Am. J. Pathol., Vol. 156, No. 3, pp. 791-795 (2000); Rubin et al., Cancer Res., Vol. 61, No. 22, pp. 8118-8121 (2001)). Lysates prepared from BR or C2 cells were probed with an anti-P-Tyr antibody and KIT receptor activation was assessed by measuring autophosphorylation.

Assay [4] has as its system C2 canine mastocytoma cells. Put plainly: Proliferation of C2 cells, XTT-based assay. Type of assay: cell-based. Conditions: C2 cells (data not shown).
Assay [5] deals with T1, constitutively activated mutant canine KIT (BR cells, Leucine to Proline substitution at amino acid 575) (Canis lupus familiaris, UniProt O97799, L579P).
T1 construct: Lysates prepared from BR or C2 cells were probed with an anti-P-Tyr antibody; endogenous in cells; host or cells: BR canine mastocytoma cell line
T1 sequence (O97799 28-979 L579P): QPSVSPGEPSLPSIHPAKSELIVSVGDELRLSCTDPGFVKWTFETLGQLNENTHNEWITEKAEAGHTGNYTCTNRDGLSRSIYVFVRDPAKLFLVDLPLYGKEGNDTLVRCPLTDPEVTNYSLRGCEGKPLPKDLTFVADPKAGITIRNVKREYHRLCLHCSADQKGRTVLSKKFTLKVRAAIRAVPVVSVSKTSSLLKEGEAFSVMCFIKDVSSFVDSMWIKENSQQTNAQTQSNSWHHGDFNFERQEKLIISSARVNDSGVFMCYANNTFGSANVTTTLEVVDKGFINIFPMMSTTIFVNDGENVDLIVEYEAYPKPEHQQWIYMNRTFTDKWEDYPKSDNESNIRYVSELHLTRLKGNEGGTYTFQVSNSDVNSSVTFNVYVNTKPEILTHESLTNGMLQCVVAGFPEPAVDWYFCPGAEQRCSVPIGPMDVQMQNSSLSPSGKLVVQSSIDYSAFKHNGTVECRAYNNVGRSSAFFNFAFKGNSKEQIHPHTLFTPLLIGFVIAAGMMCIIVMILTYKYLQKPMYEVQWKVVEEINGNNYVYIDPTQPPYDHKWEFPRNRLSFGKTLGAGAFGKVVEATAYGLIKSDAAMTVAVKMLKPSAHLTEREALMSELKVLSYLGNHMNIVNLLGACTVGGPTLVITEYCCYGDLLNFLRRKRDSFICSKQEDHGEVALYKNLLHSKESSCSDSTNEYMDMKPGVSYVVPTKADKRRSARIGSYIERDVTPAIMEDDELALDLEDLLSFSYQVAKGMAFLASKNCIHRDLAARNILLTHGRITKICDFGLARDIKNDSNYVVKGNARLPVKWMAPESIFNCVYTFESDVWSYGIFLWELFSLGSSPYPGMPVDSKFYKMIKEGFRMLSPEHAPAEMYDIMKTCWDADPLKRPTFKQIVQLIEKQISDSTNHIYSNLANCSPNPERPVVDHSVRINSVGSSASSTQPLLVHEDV
Put plainly: KIT autophosphorylation in BR cells (anti-P-Tyr Western immunoblot). In kind it is cell-based.
Source text: as §4
as §1, with “region.” for “region. The translation of this ITD results in reduplication of amino acid residues at the 3′ end of exon 11 (London et al., Exp. Hematol., Vol. 27, No. 4, pp. 689-697 (1999); Ma et al., J. Invest. Dermatol., Vol. 112, No. 2, pp. 165-170 (1999)).”
as §5, §6

Assay [6] relates to C2 canine mastocytoma cells. In words: Proliferation of C2 cells, XTT-based assay. Type of assay: cell-based. Conditions: for % (percent of maximal proliferation, cells only) / Averages (XTT-based assay reading): 72 hours; for Averages (XTT-based assay reading): triplicate. Here is the method:
as §1, §2, §3

Assay [7] concerns cultured mast cells grown under stimulation with SCF. Put plainly: Detection of cellular apoptosis (PI flow cytometry, DNA gel electrophoresis).
Assay [8] deals with cultured human mast cells generated from CD34+ cord blood cells. Put plainly: SCF-dependent growth of cultured human mast cells (suspension culture, trypan-blue viable cell count). In kind it is cell-based. Here is the method: (§7) More than 90% of the isolated cells were CD34-positive according to the flow cytometric analysis.
(§8) Serum-deprived liquid cultures are carried out in 24-well culture plates (#3047; Becton Dickinson). Twenty thousand CD34^+ cells are cultured in each well containing 2 mL of […]-medium supplemented with 1% BSA, 300 μg/mL fully iron-saturated human transferrin (approximately 98% pure, Sigma), 16 μg/mL soybean lecithin (Sigma), 9.6 μg/mL cholesterol (Nakalai Chemicals Ltd., Japan) and 20 ng/mL of SCF, 10 ng/mL of GM-CSF, 2 U/mL of EPO, 10 ng/mL of TPO, different concentrations of a COMPOUND OF THE INVENTION, alone or in combination. In order to examine the effects of a COMPOUND OF THE INVENTION on the SCF-dependent development of mast cells, 10-week cultured cells grown with 20 ng/mL of SCF from CD34^+ cord blood cells are used as target cells. Five to ten×10^4 10-week cultured cells are incubated for 2 weeks in 24-well culture plates containing 20 ng/mL of SCF with or without various concentrations of a COMPOUND OF THE INVENTION. The plates are incubated at 37° C. in a humidified atmosphere flushed with a mixture of 5% CO2, 5% O2 and 90% N2. When the culture continued until 4 weeks, half of the culture medium is replaced every 2 weeks with fresh medium containing the factor(s). The number of viable cells is determined by a trypan-blue exclusion test using a hemocytometer.

In a further assay the test system is CD34+ cord blood cells. In words: Cell production by CD34+ cells under stimulation with SCF (suspension culture). In kind it is cell-based, human. As to conditions: STI571B at 10^-6 M. The protocol: as §7, §8
Where [9] appears, read: membrane reprobed with anti-c-kit antibody.

Consider `Cc1ccc(NC(=O)c2ccc(CN3CCN(C)CC3)cc2)cc1Nc1nccc(-c2cccnc2)n1` [COMPOUND I], for which the “morphologic observations of inhibitor treated cells” value in assay [1] (BR cells (data not shown)) and in assay [4] was “changes consistent with apoptosis” in each case. The “% (percent of maximal proliferation, cells only)” value in [1] (BR cells, 1 μM) is on record as 11%; in [1] (BR cells, 5 μM), 9%; in [1] (BR cells, .001 μM), 84%; in [1] (BR cells, .01 μM), 52%; in [1] (BR cells, .1 μM), 11%; in [6] (1 μM) it was 3%. Also, the “% (percent of maximal proliferation, cells only)” value in assay [6] (5 μM) is listed as 3%; in [6] (.001 μM), 86%; in assay [6] (.01 μM), 61%; in [6] (.1 μM), 2%. The “Averages (XTT-based assay reading)” value in [1] (BR cells, 1 μM) stood at 0.105; in [1] (BR cells, 5 μM) it was 0.083; in [1] (BR cells, .001 μM) it was 0.781; in assay [1] (BR cells, .01 μM) it was 0.479; in [1] (BR cells, .1 μM), 0.105; in [6] (1 μM), 0.037. In addition, the “Averages (XTT-based assay reading)” value is on record as 0.032 in assay [6] (5 μM), 1.065 in [6] (.001 μM), 0.754 in [6] (.01 μM) and 0.028 in assay [6] (.1 μM). Further, the inhibition of proliferation entry is given as “Partial inhibition” in assay [1] (BR cells, 0.001-0.01 μM, 48-72 hours) and “Partial inhibition” in [6] (0.001-0.01 μM, 48-72 hours). For the same molecule, the “decrease of proliferation compared to cells treated with media only” value in assay [1] (BR cells, 0.1-10 μM, 48-72 hours) is recorded as 90-95%; in assay [6] (0.1-10 μM, 48-72 hours), 90-95%. The “Objective Tumors Responses” value in assay [2] was “observed”. Besides, the “inhibition of KIT autophosphorylation” value was “Near complete inhibition” in assay [3] (0.1 μM); “complete inhibition” in assay [3] (1.0 μM); “complete inhibition” in assay [3] (10 μM); “Near complete inhibition” in assay [5] (0.1 μM); “complete inhibition” in assay [5] (1.0 μM); “complete inhibition” in [5] (10 μM). The autophosphorylation of c-kit result in assay [3] (0.001-0.01 μM) and in assay [5] (0.001-0.01 μM) was “Limited autophosphorylation” in each case. In addition, the “expression of c-kit protein” value in [3] (setting [9]) and in assay [5] (setting [9]) was “no change” in each case.

In the case of `Cc1ccc(NC(=O)c2ccc(CN3CCN(C)CC3)cc2)cc1Nc1nccc(-c2cccnc2)n1` [STI571B, N-{5-[4-(4-methyl-piperazino-methyl)-benzoylamido]-2-methyl-phenyl}-4-(3-pyridyl)-2-pyrimidine-amine monomesylate], the “percentage of sub-diploid nuclei” value in assay [7] (SCF plus STI571B, over culture period) is “increases with the culture period”. Also, the “DNA laddering on gel electrophoresis” value in assay [7] (cells exposed to SCF plus STI571B) is on record as “DNA laddering”. In addition, in assay [7] (grown under stimulation with SCF), the “programmed death of cultured mast cells” value is “induces a programmed death”. In addition, the “number of viable cells” value is given as “declines in a time-dependent fashion” in assay [8] (SCF plus STI571B, after day 2) and “unchanged” in assay [8] (SCF plus STI571B, day 2). Besides, the total cell number result in [8] (SCF plus STI571B, day 14) is “negligible level”. Also, in assay [8] (STI571B at 10^-6 M or higher, 10-week cultured mast cells, SCF), the “progeny generation in culture with SCF” value was “almost completely inhibits”. Moreover, the “cell production by CD34+ cells under stimulation with SCF” value in the assay on CD34+ cord blood cells was “markedly depresses”.
